Measured values published in ChEMBL document CHEMBL4316626, “N-Acyl pyrazoles: Effective and tunable inhibitors of serine hydrolases” (Bioorg Med Chem, 2019).

Assays:
[1] = biological target: T1, Monoacylglycerol lipase ABHD6 (Mus musculus, UniProt Q8R2Y0); experiment: Inhibition of FP-rhodamine probe binding to ABHD6 in mouse brain membrane proteome preincubated for 1 hr followed by FP-rhodamine addition and measured after 30 mins by SDS-PAGE based fluorescence assay; type: cell membranes
T1 sequence (Q8R2Y0 whole entry): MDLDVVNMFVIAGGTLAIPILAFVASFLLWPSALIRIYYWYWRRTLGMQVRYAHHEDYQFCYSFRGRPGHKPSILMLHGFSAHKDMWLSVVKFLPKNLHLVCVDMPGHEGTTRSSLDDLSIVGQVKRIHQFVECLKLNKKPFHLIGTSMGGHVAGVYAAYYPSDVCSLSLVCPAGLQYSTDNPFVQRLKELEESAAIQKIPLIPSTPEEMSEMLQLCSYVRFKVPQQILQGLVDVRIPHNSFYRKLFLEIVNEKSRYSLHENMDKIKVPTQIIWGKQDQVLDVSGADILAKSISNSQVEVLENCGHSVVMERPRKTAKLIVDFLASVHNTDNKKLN

Monoglyceride lipase = biological target: T2, Monoglyceride lipase (Mus musculus, UniProt O35678); experiment: Inhibition of FP-rhodamine probe binding to MGLL in mouse brain membrane proteome preincubated for 1 hr followed by FP-rhodamine addition and measured after 30 mins by SDS-PAGE based fluorescence assay; type: cell membranes
T2 sequence (O35678 whole entry): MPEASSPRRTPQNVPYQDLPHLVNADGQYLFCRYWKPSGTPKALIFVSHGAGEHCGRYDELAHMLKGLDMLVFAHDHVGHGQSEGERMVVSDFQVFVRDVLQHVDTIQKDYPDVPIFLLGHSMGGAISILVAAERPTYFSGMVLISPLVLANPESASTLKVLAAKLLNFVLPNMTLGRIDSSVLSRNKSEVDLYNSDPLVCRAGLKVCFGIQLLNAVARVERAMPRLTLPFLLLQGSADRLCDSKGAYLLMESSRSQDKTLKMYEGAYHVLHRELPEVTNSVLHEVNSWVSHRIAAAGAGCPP

[2] = biological target: T3, Neutral cholesterol ester hydrolase 1 (Mus musculus, UniProt Q8BLF1); experiment: Inhibition of FP-rhodamine probe binding to KIAA1363 in mouse brain membrane proteome preincubated for 1 hr followed by FP-rhodamine addition and measured after 30 mins by SDS-PAGE based fluorescence assay; type: cell membranes
T3 sequence (Q8BLF1 whole entry): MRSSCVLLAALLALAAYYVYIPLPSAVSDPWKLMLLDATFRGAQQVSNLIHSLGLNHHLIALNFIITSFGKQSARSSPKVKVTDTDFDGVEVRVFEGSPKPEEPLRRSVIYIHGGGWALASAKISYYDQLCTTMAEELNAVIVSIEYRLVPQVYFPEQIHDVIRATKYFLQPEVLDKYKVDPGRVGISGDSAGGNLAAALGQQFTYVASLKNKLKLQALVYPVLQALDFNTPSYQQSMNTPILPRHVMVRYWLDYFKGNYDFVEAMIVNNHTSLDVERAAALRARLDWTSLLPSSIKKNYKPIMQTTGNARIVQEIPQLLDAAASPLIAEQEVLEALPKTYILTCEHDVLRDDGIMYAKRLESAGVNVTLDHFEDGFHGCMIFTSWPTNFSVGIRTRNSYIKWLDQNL

Mus musculus = species on record: Mus musculus; experiment: Selectivity ratio of IC50 for inhibition of FP-rhodamine probe binding to ABHD6 in mouse brain membrane proteome to IC50 for inhibition of FP-rhodamine probe binding to MGLL in mouse brain membrane proteome; type: cell membranes
[3] = biological target: T4, Fatty-acid amide hydrolase 1 (Mus musculus, UniProt O08914); experiment: Inhibition of FP-rhodamine probe binding to FAAH in mouse brain membrane proteome preincubated for 1 hr followed by FP-rhodamine addition and measured after 30 mins by SDS-PAGE based fluorescence assay; type: cell membranes
T4 sequence (O08914 whole entry): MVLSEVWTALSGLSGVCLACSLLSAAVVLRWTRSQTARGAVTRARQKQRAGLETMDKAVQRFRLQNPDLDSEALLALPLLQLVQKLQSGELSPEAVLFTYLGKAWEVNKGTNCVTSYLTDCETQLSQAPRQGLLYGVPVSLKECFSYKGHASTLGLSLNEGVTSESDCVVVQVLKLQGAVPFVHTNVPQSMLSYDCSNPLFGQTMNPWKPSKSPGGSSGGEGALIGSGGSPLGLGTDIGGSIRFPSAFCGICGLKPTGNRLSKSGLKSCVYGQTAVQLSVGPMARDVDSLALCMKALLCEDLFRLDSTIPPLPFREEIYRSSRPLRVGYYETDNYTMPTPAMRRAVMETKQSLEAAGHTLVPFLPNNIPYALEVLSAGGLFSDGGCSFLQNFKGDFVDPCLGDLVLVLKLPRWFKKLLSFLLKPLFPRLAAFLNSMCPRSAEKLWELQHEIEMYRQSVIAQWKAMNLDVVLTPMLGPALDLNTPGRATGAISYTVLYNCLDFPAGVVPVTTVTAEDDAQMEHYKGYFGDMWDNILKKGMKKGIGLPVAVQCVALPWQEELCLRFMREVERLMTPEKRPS

[4] = Inhibition of recombinant rat FAAH deltaTM mutant expressed in Escherichia coli using 14C-labeled oleamide as substrate preincubated for 3 hrs followed by substrate addition and measured by TLC based Dixon-plot analysis; details: read-out: Ki(app)

IC50 [1] [µM] | IC50 (Monoglyceride lipase) [µM] | IC50 [2] [µM] | Ratio IC50 (Mus musculus) | IC50 [3] [µM] | Structure (SMILES) | Ki [4] [µM]
0.56 | 0.008 | > 100 | 70 | > 100 | N#Cc1cnn(C(=O)N2CCN(C(c3ccc4ccccc4c3)c3ccc4ccccc4c3)CC2)c1 | –
130 | 0.02 | > 100 | > 1000 | 790 | N#Cc1cnn(C(=O)N2CCN(C(c3ccc(OCc4ccccc4)cc3)c3ccc(OCc4ccccc4)cc3)CC2)c1 | 25
